Source: patent US11072636B2, “Peptide for inhibiting angiogenesis and use thereof” (CAREGEN CO., LTD., priority 2017, dated 2021)

Legend:
[1] = system: human umbilical vein endothelial cells (HUVEC); test: Inhibition of proliferation of vascular endothelial cells (MTT analysis); assay type: cell-based; conditions: VEGF 20 ng/ml, 1% serum, 3 days, MTT absorbance 560 nm, FIGS. 1 and 2
Protocol: In order to confirm an effect of inhibiting the proliferation of vascular endothelial cells, the peptides prepared in Preparation Example 1 were treated to vascular endothelial cells, respectively, and then MTT analysis was performed.
Specifically, human umbilical vein endothelial cells (HUVEC) were inoculated in a 96-well plate at a density of 4×10^3 cells/well and then incubated overnight. Thereafter, after the medium was changed to a medium added with 1% serum, a VEGF (20 ng/ml) and the peptide of the present invention were treated for each concentration, respectively, and incubated for 3 days. However, 2 μm of sunitinib was used as a positive control group.
In addition, in order to confirm the effect of inhibiting the proliferation, 4 mg/ml of a thiozolyl blue tetrazolium bromide (MTT) solution was added to each well, formazan generated after reaction for 4 hours was dissolved by DMSO treatment, and then the absorbance was measured at a wavelength of 560 nm using a microplate reader. However, the measured absorbance values were shown by calculating relative rates based on an untreated control group.

HUVEC cells = test: Inhibition of differentiation of vascular endothelial cells (tube formation assay); assay type: cell-based, human; conditions: VEGF 20 ng/ml, serum-free, 1 day, FIGS. 3 and 4
Protocol: In order to confirm the effect of inhibiting the differentiation of vascular endothelial cells, the two peptides prepared in Preparation Example 1 were treated to the vascular endothelial cells, respectively, and then a tube formation assay was performed.
Specifically, HUVEC cells were inoculated in a 96-well plate at a density of 1.5×10^3 cells/well and incubated overnight, and then the medium was replaced with serum-free media, and then a VEGF (20 ng/ml) and the peptide of the present invention were treated by concentration and incubated for 1 day. However, 2 μm of sunitinib was used as a positive control group. After the incubation was completed, the measurement of tube formation was visually observed using an optical microscope, and the number of nodules was measured together.

VEGF receptor (VEGFR2) = test: Inhibition of cell signaling pathway induced by VEGF: phosphorylation of VEGFR2; assay type: cell-based; conditions: vascular endothelial cells; FIGS. 5 and 6
Protocol: (§1) Further, in order to confirm the effect of inhibiting a cell signaling pathway induced by the VEGFs by the peptides of the present invention, in a specific exemplary embodiment of the present invention, a peptide having an amino acid sequence of SEQ ID NO: 1 or SEQ ID NO: 2 was treated to vascular endothelial cells and then changes in phosphorylation of a VEGF receptor (VEGFR2), ERK, AKT and p38 induced by the VEGF were confirmed.

ERK = test: Inhibition of cell signaling pathway induced by VEGF: phosphorylation of ERK; assay type: cell-based; conditions: vascular endothelial cells; FIGS. 5 and 6
Protocol: as §1

AKT = test: Inhibition of cell signaling pathway induced by VEGF: phosphorylation of AKT; assay type: cell-based; conditions: vascular endothelial cells; FIGS. 5 and 6
Protocol: as §1

p38 = test: Inhibition of cell signaling pathway induced by VEGF: phosphorylation of p38; assay type: cell-based; conditions: vascular endothelial cells; FIGS. 5 and 6
Protocol: as §1

eNOS = test: Expression level of vascular endothelial cell migration marker eNOS; assay type: cell-based; conditions: vascular endothelial cells; FIGS. 7 and 8
From the text: In addition, in order to confirm an effect of inhibiting the migration the vascular endothelial cells by the peptides of the present invention, in a specific exemplary embodiment of the present invention, a change in expression level of a vascular endothelial cell migration marker ‘eNOS’ was confirmed depending on treatment of the peptide having the amino acid sequence of SEQ ID NO: 1 or SEQ ID NO: 2 to the vascular endothelial cells.

BAX protein = test: Expression level of pro-apoptotic BAX protein; assay type: cell-based; conditions: vascular endothelial cells, expression reduced by the VEGF; FIGS. 9 and 10
VEGFR2 = VEGFR2 (Homo sapiens, UniProt P35968); test: Competitive binding to the VEGF receptor; conditions: FIGS. 11 to 14
Chain of VEGFR2 (P35968 20-1356, species assumed): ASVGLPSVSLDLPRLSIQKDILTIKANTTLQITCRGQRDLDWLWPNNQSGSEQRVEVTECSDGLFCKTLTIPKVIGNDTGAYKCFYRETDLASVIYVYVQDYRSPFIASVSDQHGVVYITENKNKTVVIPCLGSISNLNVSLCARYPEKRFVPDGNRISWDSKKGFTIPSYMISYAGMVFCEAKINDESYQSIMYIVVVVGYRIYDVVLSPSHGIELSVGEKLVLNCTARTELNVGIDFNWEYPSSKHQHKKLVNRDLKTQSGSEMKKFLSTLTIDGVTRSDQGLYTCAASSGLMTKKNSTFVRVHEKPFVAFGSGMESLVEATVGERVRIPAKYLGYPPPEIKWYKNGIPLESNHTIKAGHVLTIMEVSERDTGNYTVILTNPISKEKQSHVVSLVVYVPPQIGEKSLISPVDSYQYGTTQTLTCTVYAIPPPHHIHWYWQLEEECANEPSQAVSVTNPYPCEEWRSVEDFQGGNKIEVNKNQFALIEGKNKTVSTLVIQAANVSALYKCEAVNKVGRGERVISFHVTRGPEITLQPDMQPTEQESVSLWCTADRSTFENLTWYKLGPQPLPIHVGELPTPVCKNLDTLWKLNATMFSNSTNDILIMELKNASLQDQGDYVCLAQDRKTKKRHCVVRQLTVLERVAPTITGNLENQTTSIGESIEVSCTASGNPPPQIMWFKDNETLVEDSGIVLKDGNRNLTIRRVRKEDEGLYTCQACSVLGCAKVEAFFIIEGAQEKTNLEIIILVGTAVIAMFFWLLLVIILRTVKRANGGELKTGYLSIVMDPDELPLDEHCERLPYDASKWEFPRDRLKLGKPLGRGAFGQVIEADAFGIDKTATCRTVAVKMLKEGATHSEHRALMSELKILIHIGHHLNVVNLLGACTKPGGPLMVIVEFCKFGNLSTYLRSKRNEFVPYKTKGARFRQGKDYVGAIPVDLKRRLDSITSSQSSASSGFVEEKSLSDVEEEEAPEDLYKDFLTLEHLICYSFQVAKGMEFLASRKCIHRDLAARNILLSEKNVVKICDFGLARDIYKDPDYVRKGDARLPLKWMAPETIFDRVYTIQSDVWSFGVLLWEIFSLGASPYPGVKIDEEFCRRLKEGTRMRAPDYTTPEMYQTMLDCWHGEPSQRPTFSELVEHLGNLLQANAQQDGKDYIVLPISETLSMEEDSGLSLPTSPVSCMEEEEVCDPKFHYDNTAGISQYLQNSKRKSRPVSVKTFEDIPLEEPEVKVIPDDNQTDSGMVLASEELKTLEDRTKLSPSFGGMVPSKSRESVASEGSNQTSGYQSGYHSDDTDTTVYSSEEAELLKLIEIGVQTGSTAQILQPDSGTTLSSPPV

Sequence | proliferation of vascular endothelial cells increased by the VEGF [1] | differentiation (tube formation) of vascular endothelial cells (HUVEC cells) | phosphorylation of VEGFR2 induced by the VEGF (VEGF receptor (VEGFR2)) | phosphorylation of ERK induced by the VEGF (ERK) | phosphorylation of AKT induced by the VEGF (AKT) | phosphorylation of p38 induced by the VEGF (p38) | eNOS expression increased by VEGF treatment (eNOS) | expression of the BAX protein (BAX protein) | binding to the VEGF receptor in competition with the VEGF (VEGFR2)
IHGTYKELL (Peptide 2) [SEQ ID NO: 2] | reduced | reduced | significantly inhibited | significantly inhibited | significantly inhibited | significantly inhibited | decrease concentration-dependently | increased concentration-dependently | bind to a VEGFR2 competitively with the VEGF
NKNFGYDLYR (Peptide 1) [SEQ ID NO: 1] | reduced | reduced | significantly inhibited | significantly inhibited | significantly inhibited | significantly inhibited | decrease concentration-dependently | increased concentration-dependently | bind to a VEGFR2 competitively with the VEGF
